Laboratory results from patent US11147781B2, “Methods for alleviating statin myopathy” (priority 2014, dated 2021).

Key:
[1] = No Observed Adverse Effect Level (NOAEL) for HMB oral ingestion in rats; assay type: in vivo
Experimental: This is an estimated human equivalent of 558 mg/kg and 665 mg/kg for men and women, respectively; assuming a body weight of 150 lbs equates to 38 g (males) and 45 g (females). […] Overall, standard doses of HMB appear to be well-tolerated over long periods of time.

[2] = test system: statin-related cumulative trauma disorder; test: Treatment of statin-related cumulative trauma disorder using HMB; assay type: in vivo, human; details: within 6 weeks of beginning HMB treatment
From the text: Cumulative trauma disorder, also known as chronic overuse syndrome, is characterized by muscle damage due to performing repetitive activities over time. Statin users are particularly vulnerable to cumulative trauma disorder due to impaired ability to heal chronically micro-traumatized muscle. Here, HMB is used to treat cumulative trauma disorder. Protocol: Patients are enrolled if they qualify with symptoms that include chronic muscle weakness and pain complemented by an occupation or lifestyle lending itself to chronic overuse syndrome (e.g., construction workers, etc.). All patients are currently on statins. Initial documentation of strength levels and pain severity are required. Pain is evaluated using the Verbal Numerical Rating Scale (VNRS). Strength is measured using the Manual Muscle Testing/5-point scale. Additionally, grip strength is measured using a dynamometer. Once enrolled, the following steps are initiated: • 1. Obtain baseline lab including lipid panel and CPK-MM levels; • 2. Continue statin with dose unchanged; • 3. Continue repetitive activity in question at the same level of intensity; • 4. […]

[3] = test system: statin-induced glucose intolerance; test: Treatment of statin-induced glucose intolerance using HMB; assay type: in vivo, human
From the text: Glucose intolerance with hyperglycemia/increased risk for diabetes, probably related to insulin resistance, has been reported in statin users, especially lipophilic statins such as […], less so in hydrophilic statins such as pravastatin. Here, HMB administration is used to treat statin-related glucose intolerance. Protocol: type 1, 1.5, and 2 diabetics with hemoglobin A1C at or exceeding 6.5% are eligible; also eligible are hyperglycemic/increased risk for diabetes patients not on diabetic treatment but with a hemoglobin A1C at or exceeding 5.7%; patients with critical value fasting blood glucose and hemoglobin A1C levels are excluded. Once enrolled, the following steps are initiated: • 1. Continue statin and diabetic medications with dosages unchanged; • 2. Initiate calcium HMB monohydrate, 2 g twice daily, or HMB free acid (gel form), 1 g three times daily; • 3. Repeat fasting blood glucose and hemoglobin A1C in 3 weeks and 6 weeks;

[4] = cited from earlier work
[5] = test system: patients with statin-induced myopathy (SIM); assay type: in vivo, human
Experimental: A clinical study was conducted to evaluate the effects of HMB on patients with statin-induced myopathy (SIM). A total of eighteen patients were evaluated for the study with informed written consent obtained. Of the eighteen patients, fourteen (14) ultimately qualified as having true statin myalgia and were enrolled in the study. All patients enrolled were under the care of a board certified cardiologist.
A summary of the enrolled patients and their outcomes is as follows: • 1. All 14 had type 2a or mixed hyperlipidemia. • 2. All 14 had been treated with multiple statin agents, in each case withdrawing from the statin agent due to myalgia/myopathy. • 3. Of the 14 patients enrolled, 4 had elevated CPKs (creatine phosphokinase, a biomarker for myositis/rhabdomyolysis) secondary to SIM. • 4. Five of the 14 patients had undergone prior percutaneous coronary intervention with stents. • 5. One of the 14 patients had undergone prior coronary bypass surgery. • 6. Four of the 14 patients had angiographically documented moderate coronary artery disease not requiring percutaneous coronary intervention (PCI)/coronary bypass. • 7. Four of the 18 patients were disqualified due to the following: • Patient's leg myalgia was secondary to angiographically proven peripheral vascular disease, not SIM and symptoms were consistent with this diagnosis. • Patient's unilateral leg pain was secondary to neuropathy, not SIM. • Patient complained of GI upset on combined statin+3-hydroxy 3-methybutyrate and medication was discontinued. […] All 14 qualified patients remained on combination statin (in some cases with Zetia to achieve target) plus HMB therapy after the initial duration of the study. As noted, of those who had previously discontinued statin therapy, all had been tried on multiple statin agents without success. • 9. Follow up was conducted with all patients including out-patient visits and phone conversation. • 10.
The free acid form was used in one patient who experienced major CPK elevations (900-1000 IU/L range) and disabling myalgia on statins.
For this study, patients were evaluated using multiple laboratories with variable lab normal ranges, which are included. In the patient population as a whole, the full spectrum of SIM is presented, including statin myalgia […] CPK elevation (myositis or rhabdomyolysis depending on severity), elevation of CPK without myalgia, post-statin elevation of CPK with and without pain, post-statin myalgia without CPK elevation, and, finally, statin-induced muscle weakness without myalgia. Also represented were other statin-induced side effects such as short-term memory loss and glucose intolerance.

[6] = cited from earlier work; remark: listed apart in the source
[7] = test system: statin-induced short-term memory loss; test: Treatment of statin-induced short-term memory loss with HMB; assay type: in vivo, human; details: within two months of HMB treatment, statin continued
From the text: HMB administration is used to treat short-term memory loss, an unusual side effect resulting from statin administration. […] Protocol: Patient describes short term memory loss after starting statin. Initiate the following steps: • 1. Assess memory loss with standardized neuro-psychometric testing as baseline status; • 2. Initiate calcium HMB monohydrate, 2 g twice daily; or calcium free acid gel, 1 g three times daily; • 3. Continue statin therapy with no dose change; • 4. Obtain baseline lab (lipid panel, CPK, liver function/metabolic profile) and repeat in 12 weeks; • 5. Reassess memory status in 12 weeks repeating psycho-metric testing and comparing to baseline study.

[8] = test system: statin-induced abnormal liver function; test: Treatment of statin-induced abnormal liver function using HMB; assay type: in vivo, human; details: within 3 months of beginning HMB treatment
Experimental: Elevated liver function tests (LFTs) are common in statin users. The presence of elevated transaminases, commonly the transaminases alanine transaminase (ALT or SGPT) and aspartate transaminase (AST or SGOT), are indicators of liver damage. Terms for this condition include transaminasemia and transaminitis, Normal ranges for both ALT and AST are 8-40 U/L with mild transaminesemia noted to the upward numerical limit of 250 U/L. Here, HMB is administered to normalize abnormal liver function tests and reverse transaminitis. […] Once enrolled, initiate the following steps: • 1. Initiate calcium HMB monohydrate, 2 g twice daily or HMB free acid (gel form), 1 g three times daily; • 2. Continue statin agent with no dose change; • 3. Repeat liver panel in 3 months and compare to baseline.

[9] = test system: rosuvastatin-induced myalgia and myopathy; test: Initial assessment of HMB reversal of statin myalgia (single volunteer); assay type: in vivo, human
Experimental: A healthy, fully informed and consenting adult volunteer with severe rosuvastatin-induced myalgia and myopathy and pre-statin LDL of 260 was administered 1 gram HMB three times a day (3 grams/day total) while rosuvastatin therapy was continued. Within 72 hours of the initial HMB administration, statin myalgia/myopathy fully subsided. During brief intervals where HMB treatment was discontinued (i.e., unintentionally skipped doses), the subject reported a return of myalgia, which again subsided upon reinstatement of HMB treatment.

CC(C)(O)CC(=O)O [HMB, β-hydroxy β-methylbutyrate]
human equivalent of NOAEL assuming a body weight of 150 lbs ([1]; females): 45 g | human equivalent of NOAEL assuming a body weight of 150 lbs ([1]; males): 38 g | pain severity [2]: reduced pain severity | strength levels [2]: increased strength levels | fasting blood glucose ([3]; diabetic patients, within 6 weeks): less than 130 mg % | hemoglobin A1C ([3]; diabetics, within 6 weeks of beginning HMB treatment): below 6.5% | fasting blood glucose ([3]; hyperglycemic/non-diabetic management patients, within 6 weeks): less than 100 mg % | hemoglobin A1C ([3]; hyperglycemics on dietary management, within 6 weeks): < 5.7% | half-life ([4]; in vivo): relatively short | time to peak levels ([4]; in vivo): quickly | area under blood level curve ([4]; when ingested with glucose): reduced | short term memory loss ([5]; Patient F-6, atorvastatin 40 mg + Zetia 10 mg + 2 g BID, 2-month follow-up): mostly resolved | response of SIM symptoms ([5]; all 14 qualifying patients, combination statin plus HMB): complete resolution of SIM symptoms | SIM-related myalgia ([5]; the disqualified patient with GI upset, after HMB treatment): resolved completely | toxicological parameters in serum ([6]; 3 g HMB daily for up to 8 weeks, youth and older persons): failed to alter toxicological parameters in serum | safety on long administration ([6]; 3 g daily, one year of administration): safe | toxic effects on serum parameters ([6]; approximately 6 g HMB daily (78 mg/kg) for one month, untrained young males subject to exercise): did not show any toxic effects | tolerability ([6]; standard doses, long periods of time): well-tolerated | short-term memory loss [7]: reversal of some or all short-term memory loss | ALT/SGPT [8]: less than 40 U/L | AST/SGOT [8]: less than 40 U/L | time until statin myalgia/myopathy fully subsided ([9]; 1 gram HMB three times a day, rosuvastatin continued, one volunteer): ≤ 72 h | benefit of increased HMB dosage ([9]; increase to 6 grams/day): no additional benefit
